Measured values: PMC12250302, “Synthesis, Antimicrobial Activities, and Model of Action of Novel Tetralone Derivatives Containing Aminoguanidinium Moiety” (International Journal of Molecular Sciences, 2025)
In brackets after ≈: the same amount, converted by molar mass. Like-named read-outs stand apart in the source and are kept apart here. Blank lines part the entries; values can stand above or below the compound they belong to.

Experiments:
Experiment in all cases: MIC and MBC testing, broth microdilution
E. faecium ATCC 35667 = format: cell-based, Enterococcus faecium; details: E. faecium ATCC 35667; for MIC: 18 h
Source text: (§1) The minimum inhibitory concentrations (MICs) and minimum bactericidal concentrations (MBCs) of the synthesized compounds effective against ESKAPE strains, S. aureus clinical isolates, and MRSA were investigated by the broth dilution method. Levofloxacin is a broad-spectrum antibacterial agent that is widely used in the treatment of ESKAPE infections. Therefore, levofloxacin was selected as the positive control for the preliminary activity screening. DMSO (0.1%) was selected as the negative control.
(§2) The minimum inhibitory concentration (MIC) of all synthesized compounds was tested by the broth microdilution method. In brief, compounds dissolved in DMSO were diluted twice continuously in a 96-well plate with MH broth. The ESKAPE pathogens (E. coli ATCC 25922, S. aureus ATCC 29213, K. pneumoniae ATCC 700603, A. baumannii ATCC 19606, P. aeruginosa ATCC 27853, and E. faecium ATCC 35667), clinical S. aureus isolates (LMY45, LMY46, LMY47, and LMY48) and methicillin-resistant Staphylococcus aureus (MRSA-1 and MRSA-2) were cultured in MH broth to logarithmic growth phase and then diluted to 1 × 10^6 CFU/mL in MH broth. Subsequently, the diluted bacterial solution was mixed with the diluted compound solution in a 96-well plate and incubated at 37 °C for a duration of 18 h. The MIC of the compounds was recorded as the lowest concentration at which no visible growth was observed. […] Each concentration was replicated thrice.

S. aureus ATCC 29213 = format: cell-based, Staphylococcus aureus; details: S. aureus ATCC 29213; for MIC: 18 h
Source text: as §1, §2

[1] = test system: K. pneumoniae ATCC 700603; format: cell-based, Klebsiella pneumoniae; details: Klebsiella pneumoniae; for MIC: ATCC700603, 18 h, read-out: MIC; for MBC: ATCC700603, read-out: MBC
Source text: as §1, §2

A. baumannii ATCC 19606 = format: cell-based, Acinetobacter baumannii
Source text: as §1, §2

P. aeruginosa ATCC 27853 = format: cell-based, Pseudomonas aeruginosa
Source text: as §1, §2

E. coli ATCC 25922 = format: cell-based, Escherichia coli
Source text: as §1, §2

MRSA-1 = format: cell-based, Staphylococcus aureus; details: MRSA-1; for MIC: 18 h
Method: (§3) Furthermore, the MBC values of the compounds were detected.
as §2, with “h.” for “h. The MIC of the compounds was recorded as the lowest concentration at which no visible growth was observed.”

MRSA-2 = format: cell-based, Staphylococcus aureus; details: MRSA-2; for MIC: 18 h
Method: as §3
as §2, with “h.” for “h. The MIC of the compounds was recorded as the lowest concentration at which no visible growth was observed.”

[2] = test system: clinical S. aureus isolate LMY45; format: cell-based, Staphylococcus aureus; details: LMY45; for MIC: 18 h
Method: as §3
as §2, with “h.” for “h. The MIC of the compounds was recorded as the lowest concentration at which no visible growth was observed.”

[3] = test system: clinical S. aureus isolate LMY46; format: cell-based, Staphylococcus aureus; details: LMY46; for MIC: 18 h
Method: as §3
as §2, with “h.” for “h. The MIC of the compounds was recorded as the lowest concentration at which no visible growth was observed.”

[4] = test system: clinical S. aureus isolate LMY47; format: cell-based, Staphylococcus aureus; details: LMY47; for MIC: 18 h
Method: as §3
as §2, with “h.” for “h. The MIC of the compounds was recorded as the lowest concentration at which no visible growth was observed.”

[5] = test system: clinical S. aureus isolate LMY48; format: cell-based, Staphylococcus aureus; details: LMY48; for MIC: 18 h
Method: as §3
as §2, with “h.” for “h. The MIC of the compounds was recorded as the lowest concentration at which no visible growth was observed.”

[6] = Enterococcus faecium, ATCC35667, read-out: MIC
[7] = Enterococcus faecium, ATCC35667, read-out: MBC
[8] = Staphylococcus aureus, ATCC29213, read-out: MIC
[9] = Staphylococcus aureus, ATCC29213, read-out: MBC
[10] = Acinetobacter baumannii, ATCC19606, 18 h, read-out: MIC
[11] = Acinetobacter baumannii, ATCC19606, read-out: MBC
[12] = Pseudomonas aeruginosa, ATCC27853, 18 h, read-out: MIC
[13] = Escherichia coli, ATCC25922, 18 h, read-out: MIC
[14] = Escherichia coli, ATCC25922, read-out: MBC
[15] = Staphylococcus aureus, read-out: MIC
[16] = Staphylococcus aureus, read-out: MBC

MIC (E. faecium ATCC 35667; [6]): 2 µg/mL (≈ 5.16 µM)
MIC (S. aureus ATCC 29213; [8]): 2 µg/mL (≈ 5.16 µM)
MIC [1]: 8 µg/mL (≈ 20.7 µM)
MIC (A. baumannii ATCC 19606; [10]): 4 µg/mL (≈ 10.3 µM)
MIC (P. aeruginosa ATCC 27853; [12]): > 32 µg/mL
MIC (E. coli ATCC 25922; [13]): 8 µg/mL (≈ 20.7 µM)
MIC (MRSA-1; [15]): 2 µg/mL (≈ 5.16 µM)
MIC (MRSA-2; [15]): 2 µg/mL (≈ 5.16 µM)
MIC [2, 15]: 2 µg/mL (≈ 5.16 µM)
MIC [3, 15]: 2 µg/mL (≈ 5.16 µM)
MIC [4, 15]: 2 µg/mL (≈ 5.16 µM)
MIC [5, 15]: 2 µg/mL (≈ 5.16 µM)
Compound: [H]/N=C(\N)NN=C1CCCc2cc(OCc3cccc(Br)c3)ccc21 [Compound 1R, (E)-2-(6-((3-bromobenzyl)oxy)-3,4-dihydronaphthalen-1(2H)-ylidene)hydrazine-1-carboximidamide]
MBC (E. faecium ATCC 35667; [7]): 8 µg/mL (≈ 20.7 µM)
MBC (S. aureus ATCC 29213; [9]): 16 µg/mL (≈ 41.3 µM)
MBC [1]: 8 µg/mL (≈ 20.7 µM)
MBC (A. baumannii ATCC 19606; [11]): 4 µg/mL (≈ 10.3 µM)
MBC (E. coli ATCC 25922; [14]): 8 µg/mL (≈ 20.7 µM)
MBC (MRSA-1; [16]): 16 µg/mL (≈ 41.3 µM)
MBC (MRSA-2; [16]): 4 µg/mL (≈ 10.3 µM)
MBC [2, 16]: 4 µg/mL (≈ 10.3 µM)
MBC [3, 16]: 4 µg/mL (≈ 10.3 µM)
MBC [4, 16]: 8 µg/mL (≈ 20.7 µM)
MBC [5, 16]: 16 µg/mL (≈ 41.3 µM)

MIC (E. faecium ATCC 35667; [6]): 4 µg/mL (≈ 9 µM)
MIC (S. aureus ATCC 29213; [8]): 32 µg/mL (≈ 72 µM)
MIC [1]: > 32 µg/mL
MIC (A. baumannii ATCC 19606; [10]): > 32 µg/mL
MIC (P. aeruginosa ATCC 27853; [12]): > 32 µg/mL
MIC (E. coli ATCC 25922; [13]): > 32 µg/mL
MIC (MRSA-1; [15]): 16 µg/mL (≈ 36 µM)
MIC (MRSA-2; [15]): 8 µg/mL (≈ 18 µM)
MIC [2, 15]: 4 µg/mL (≈ 9 µM)
MIC [3, 15]: 4 µg/mL (≈ 9 µM)
MIC [4, 15]: 4 µg/mL (≈ 9 µM)
MIC [5, 15]: 4 µg/mL (≈ 9 µM)
Compound: [H]/N=C(\N)NN=C1CCCc2cc(OCc3cc(C(F)(F)F)cc(C(F)(F)F)c3)ccc21 [Compound 1K, (E)-2-(6-((3,5-bis(trifluoromethyl)benzyl)oxy)-3,4-dihydronaphthalen-1(2H)-ylidene)hydrazine-1-carboximidamide]
MBC (E. faecium ATCC 35667; [7]): 16 µg/mL (≈ 36 µM)
MBC (MRSA-2; [16]): 32 µg/mL (≈ 72 µM)
MBC [2, 16]: 16 µg/mL (≈ 36 µM)
MBC [3, 16]: > 32 µg/mL
MBC [4, 16]: 8 µg/mL (≈ 18 µM)
MBC [5, 16]: 8 µg/mL (≈ 18 µM)

Compound: (E)-2-(6-(4-isopropylphenoxy)-3,4-dihydronaphthalen-1(2H)-ylidene)hydrazine-1-carboximidamide [Compound 1X]
MBC (E. faecium ATCC 35667): 4 µg/mL
MIC (E. faecium ATCC 35667): 2 µg/mL
MBC (S. aureus ATCC 29213): 4 µg/mL
MIC (S. aureus ATCC 29213): 2 µg/mL
MBC (A. baumannii ATCC 19606): 8 µg/mL
MIC (A. baumannii ATCC 19606; 18 h): 4 µg/mL
MBC (P. aeruginosa ATCC 27853): > 32 µg/mL
MIC (P. aeruginosa ATCC 27853; 18 h): 32 µg/mL
MBC (E. coli ATCC 25922): 8 µg/mL
MIC (E. coli ATCC 25922; 18 h): 4 µg/mL
MBC (MRSA-1): 8 µg/mL
MIC (MRSA-1): 4 µg/mL
MBC (MRSA-2): 4 µg/mL
MIC (MRSA-2): 1 µg/mL
MBC [2]: 4 µg/mL
MIC [2]: 2 µg/mL
MBC [3]: 2 µg/mL
MIC [3]: 2 µg/mL
MBC [4]: 8 µg/mL
MIC [4]: 2 µg/mL
MBC [5]: 8 µg/mL
MIC [5]: 2 µg/mL

MIC (E. faecium ATCC 35667; [6]): ≤ 1 µg/mL
MIC (S. aureus ATCC 29213; [8]): ≤ 1 µg/mL
MIC [1]: ≤ 1 µg/mL
MIC (A. baumannii ATCC 19606; [10]): ≤ 1 µg/mL
MIC (P. aeruginosa ATCC 27853; [12]): ≤ 1 µg/mL
MIC (E. coli ATCC 25922; [13]): ≤ 1 µg/mL
Compound: C[C@H]1COc2c(N3CCN(C)CC3)c(F)cc3c(=O)c(C(=O)O)cn1c23 [Levofloxacin, reference compound]
MBC (E. faecium ATCC 35667; [7]): 2 µg/mL (≈ 5.53 µM)
MBC (S. aureus ATCC 29213; [9]): ≤ 1 µg/mL
MBC [1]: 4 µg/mL (≈ 11.1 µM)
MBC (A. baumannii ATCC 19606; [11]): 2 µg/mL (≈ 5.53 µM)
MBC (P. aeruginosa ATCC 27853; Pseudomonas aeruginosa, ATCC27853, read-out: MBC): 2 µg/mL (≈ 5.53 µM)
MBC (E. coli ATCC 25922; [14]): ≤ 1 µg/mL
